Among the data in US11529341B2, “Bicyclic compounds as inhibitors of PD1/PD-L1 interaction/activation” (JUBILANT PRODEL LLC, priority 2018, dated 2022) are IC50 values, retold here.

This test addresses T1, PD-1/PD-L1 interaction (Homo sapiens, UniProt Q9NZQ7).
T1 construct: Tag1 (undisclosed kit tag); purchased CisBio 63ADK000CPAPEG
Nature of the test: PD-1/PD-L1 Homogenous Time-Resolved Fluorescence (HTRF) binding assay (CisBio kit). To be noted: Biochemical PD1/PD-L1 inhibition. The protocol:
PD-L1 Enzyme Assay: Homogenous Time-Resolved Fluorescence (HTRF) Binding Assay
All binding studies were performed using PD-1/PD-L1 Binding Assay Kit from CisBio (Catalog #63ADK000CPAPEG), according to the manufacturer's protocol. The interaction between Tag1-PD-1 and […] was detected by anti-Tag1-Eu^3+ (HTRF donor) and anti-Tag2-XL665 (HTRF acceptor). When the donor and acceptor antibodies were brought to close proximity due to PD-1 and PD-L1 binding, excitation of the donor antibody triggered fluorescent resonance energy transfer (FRET) towards the acceptor antibody, which in turn emitted specifically at 665 nm. This specific signal is positively proportional to PD-1/PD-L1 interaction. The compounds blocking PD-1/PD-L1 interaction will cause a reduction in HTRF signal. The necessary reagents were mixed in the following order: 2 μl compounds (or diluents buffer), 4 μl PD-L1 protein, 4 μl PD-1 protein. After an incubation of 15 minutes, 5 μl of anti-Tag1-Eu^3+ and 5 μl of anti-Tag2-XL665 were added. The plate was sealed and incubated at room temperature for 1 h. The fluorescence emission was read at two different wavelengths (665 nm and 620 nm) on a BMG PheraStar® multi-plate reader. Results were calculated from the 665 nm and 620 nm fluorescence signal and expressed in HTRF ratio=(665 nm/620 nm)×10^4.
In general terms: TR-FRET usually uses a lanthanide donor and a delayed reading to cut background.

pIC50: −log10 of the molar value.

T1 sequence (Q9NZQ7 19-238 limits assumed): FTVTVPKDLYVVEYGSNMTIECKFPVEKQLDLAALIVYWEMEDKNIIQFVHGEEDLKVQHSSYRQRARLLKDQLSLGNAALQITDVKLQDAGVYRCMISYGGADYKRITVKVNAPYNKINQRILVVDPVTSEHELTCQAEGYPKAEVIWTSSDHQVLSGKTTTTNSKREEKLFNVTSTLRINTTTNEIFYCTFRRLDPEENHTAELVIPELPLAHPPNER

`Cc1c(COc2ccc(CNCCC(=O)O)c3c2CCC3)cccc1-c1ccccc1` [Compound 21, 3-(((7-((2-methyl-[1,1′-biphenyl]-3-yl)methoxy)-2,3-dihydro-1H-inden-4-yl)methyl)amino)propanoic acid] showed a negative logarithm of the IC50 (pIC50) of less than 6.30.

The molecule `Cc1c(COc2ccc(CN(C)CC(=O)O)c3c2CCC3)cccc1-c1ccccc1` [Compound 22, N-methyl-N-((7-((2-methyl-[1,1′-biphenyl]-3-yl)methoxy)-2,3-dihydro-1H-inden-4-yl)methyl)glycine] had a pIC50 of 6.30 to 7.00.

As for `Cc1c(COc2ccc(CNC(C)CC(=O)O)c3c2CCC3)cccc1-c1ccccc1` (stereo not drawn) [Compound 23, 3-(((7-((2-methyl-[1,1′-biphenyl]-3-yl)methoxy)-2,3-dihydro-1H-inden-4-yl)methyl)amino)butanoic acid], the negative-log IC50 (pIC50) was less than 6.30.

Take `Cc1c(COc2ccc(CNC(C)C(=O)O)c3c2CCC3)cccc1-c1ccccc1` (stereo not drawn) [Compound 24, ((7-((2-methyl-[1,1′-biphenyl]-3-yl)methoxy)-2,3-dihydro-1H-inden-4-yl)methyl)alanine]: the pIC50 is less than 6.30.

With `COc1cc(OCc2cccc(-c3ccccc3)c2C)c2c(c1CN1C[C@H](O)C[C@H]1C(=O)O)CCC2` [Compound 25, (2S,4R)-4-hydroxy-1-((5-methoxy-7-((2-methyl-[1,1′-biphenyl]-3-yl)methoxy)-2,3-dihydro-1H-inden-4-yl)methyl)pyrrolidine-2-carboxylic acid], the pIC50 was greater than 7.00.

Consider `COc1cc(OCc2cccc(-c3ccccc3)c2C)c2c(c1CN1CCCC[C@H]1C(=O)O)CCC2` [Compound 26, (S)-1-((5-methoxy-7-((2-methyl-[1,1′-biphenyl]-3-yl)methoxy)-2,3-dihydro-1H-inden-4-yl)methyl)piperidine-2-carboxylic acid], for which the negative-log IC50 (pIC50) was 6.30 to 7.00.

`Cc1c(COc2ccc(CN3CCCC[C@H]3C(=O)O)c3c2CCCC3)cccc1-c1ccccc1` [Compound 27, 1-((4-((2-methyl-[1,1′-biphenyl]-3-yl)methoxy)-5,6,7,8-tetrahydronaphthalen-1-yl)methyl)piperidine-2-carboxylic acid] gave a pIC50 of 6.30 to 7.00.

Take `CC(=O)NCCNCc1cc(C)c(OCc2cccc(-c3ccccc3)c2C)c2c1CCC2` [Compound 28, N-(2-(((6-methyl-7-((2-methyl-[1,1′-biphenyl]-3-yl)methoxy)-2,3-dihydro-1H-inden-4-yl)methyl)amino)ethyl)acetamide]: the negative logarithm of the IC50 (pIC50) is less than 6.30.

Molecule `Cc1cc(CN2C[C@H](O)C[C@H]2C(=O)O)c2c(c1OCc1cccc(-c3ccccc3)c1C)CCC2` [Compound 29, (2S,4R)-4-hydroxy-1-((6-methyl-7-((2-methyl-[1,1′-biphenyl]-3-yl)methoxy)-2,3-dihydro-1H-inden-4-yl)methyl)pyrrolidine-2-carboxylic acid] had a pIC50 of 6.30 to 7.00.

Take `CC(=O)NCCNCc1cc(Cl)c(OCc2cccc(-c3ccccc3)c2C)c2c1CCC2` [Compound 30, N-(2-(((6-chloro-7-((2-methyl-[1,1′-biphenyl]-3-yl)methoxy)-2,3-dihydro-1H-inden-4-yl)methyl)amino)ethyl)acetamide]: the negative-log IC50 (pIC50) was 6.30 to 7.00.

Take `Cc1c(COc2c(Cl)cc(CN3C[C@H](O)C[C@H]3C(=O)O)c3c2CCC3)cccc1-c1ccccc1` [Compound 31, (2S,4R)-1-((6-chloro-7-((2-methyl-[1,1′-biphenyl]-3-yl)methoxy)-2,3-dihydro-1H-inden-4-yl)methyl)-4-hydroxypyrrolidine-2-carboxylic acid]: the pIC50 is 6.30 to 7.00.

Turning to `COc1cc(OCc2cccc(-c3cccc(OCCCN4CCC(F)(F)C4)c3C)c2C)c2c(c1CNCCNC(C)=O)CCC2` [Compound 32, N-(2-(((7-((3′-(3-(3,3-difluoropyrrolidin-1-yl)propoxy)-2,2′-dimethyl-[1,1′-biphenyl]-3-yl)methoxy)-5-methoxy-2,3-dihydro-1H-inden-4-yl)methyl)amino)ethyl)acetamide], the negative logarithm of the IC50 (pIC50) was 6.30 to 7.00.

Consider `COc1cc(OCc2cccc(-c3cccc(OCCCN4CCC(F)(F)C4)c3C)c2C)c2c(c1CN1C[C@H](O)C[C@H]1C(=O)O)CCC2` [Compound 33, (2S,4R)-1-((7-((3′-(3-(3,3-difluoropyrrolidin-1-yl)propoxy)-2,2′-dimethyl-[1,1′-biphenyl]-3-yl)methoxy)-5-methoxy-2,3-dihydro-1H-inden-4-yl)methyl)-4-hydroxypyrrolidine-2-carboxylic acid], for which the negative logarithm of the IC50 (pIC50) is less than 6.30.

With `CC(=O)NCCNCc1c(OCc2cccc(C#N)c2)cc(OCc2cccc(-c3ccccc3)c2C)c2c1CCC2` [Compound 34, N-(2-(((5-((3-cyanobenzyl)oxy)-7-((2-methyl-[1,1′-biphenyl]-3-yl)methoxy)-2,3-dihydro-1H-inden-4-yl)methyl)amino)ethyl)acetamide], the negative-log IC50 (pIC50) was greater than 7.00.

As for `Cc1c(COc2cc(OCc3cccc(C#N)c3)c(CN3C[C@H](O)C[C@H]3C(=O)O)c3c2CCC3)cccc1-c1ccccc1` [Compound 35, (2S,4R)-1-((5-((3-cyanobenzyl)oxy)-7-((2-methyl-[1,1′-biphenyl]-3-yl)methoxy)-2,3-dihydro-1H-inden-4-yl)methyl)-4-hydroxypyrrolidine-2-carboxylic acid], the negative-log IC50 (pIC50) was greater than 7.00.

In turn, `Cc1c(COc2cc(OCc3cccc(C#N)c3)c(CN3CCCC[C@H]3C(N)=O)c3c2CCC3)cccc1-c1ccccc1` [Compound 37, (S)-1-((5-((3-cyanobenzyl)oxy)-7-((2-methyl-[1,1′-biphenyl]-3-yl)methoxy)-2,3-dihydro-1H-inden-4-yl)methyl)piperidine-2-carboxamide] had a negative-log IC50 (pIC50) greater than 7.00.

As for `Cc1c(COc2cc(OCc3cccc(C#N)c3)c(CNC(CO)(CO)CO)c3c2CCC3)cccc1-c1ccccc1` [Compound 38, 3-(((4-(((1,3-dihydroxy-2-(hydroxymethyl)propan-2-yl)amino)methyl)-7-((2-methyl-[1,1′-biphenyl]-3-yl)methoxy)-2,3-dihydro-1H-inden-5-yl)oxy)methyl)benzonitrile], the pIC50 is greater than 7.00.

In the case of `Cc1c(COc2cc(OCc3cccc(C#N)c3)c(CN3CC4(COC4)C3)c3c2CCC3)cccc1-c1ccccc1` [Compound 39, 3-(((4-((2-oxa-6-azaspiro[3.3]heptan-6-yl)methyl)-7-((2-methyl-[1,1′-biphenyl]-3-yl)methoxy)-2,3-dihydro-1H-inden-5-yl)oxy)methyl)benzonitrile], the pIC50 is 6.30 to 7.00.

For the molecule `Cc1c(COc2cc(OCc3cccc(C#N)c3)c(CN3CCCC(O)C3)c3c2CCC3)cccc1-c1ccccc1` (stereo not drawn) [Compound 40, 3-(((4-((3-hydroxypiperidin-1-yl)methyl)-7-((2-methyl-[1,1′-biphenyl]-3-yl)methoxy)-2,3-dihydro-1H-inden-5-yl)oxy)methyl)benzonitrile], the pIC50 was greater than 7.00.

`Cc1c(COc2cc(OCc3cccc(C#N)c3)c(CNCC(=O)O)c3c2CCC3)cccc1-c1ccccc1` [Compound 41, ((5-((3-cyanobenzyl)oxy)-7-((2-methyl-[1,1′-biphenyl]-3-yl)methoxy)-2,3-dihydro-1H-inden-4-yl)methyl)glycine] showed a negative logarithm of the IC50 (pIC50) greater than 7.00.

Molecule `Cc1c(COc2cc(OCc3cccc(C#N)c3)c(CN3CC4(CC4)C[C@H]3C(=O)O)c3c2CCC3)cccc1-c1ccccc1` [Compound 42, (S)-5-((5-((3-cyanobenzyl)oxy)-7-((2-methyl-[1,1′-biphenyl]-3-yl)methoxy)-2,3-dihydro-1H-inden-4-yl)methyl)-5-azaspiro[2.4]heptane-6-carboxylic acid] gave a negative logarithm of the IC50 (pIC50) greater than 7.00.

By pIC50 is commonly meant −log10 of the IC50, conventionally taken in molar units. Read a high pIC50 as a low IC50.
